Converted amounts (≈) assume the structure as drawn. Structures can show the parent of a compound that is named as a salt. Where two headings read alike, the source gives them in different places. Marks after values point to notes of the source that are not given here.
Assays:
[1] = system: bacteremia secondary to cUTI/AP; assay: Efficacy in patients with cUTI or acute pyelonephritis and associated bacteremia; format: in vivo, human
Description: The objective of this analysis was to evaluate the efficacy of TBP-PI-HBr in the subset of patients with associated bacteremia from a study of patients with either cUTI or acute pyelonephritis.

E. coli [2] = assay: Broth microdilution against US UTI pathogens 2019-2020; format: cell-based; details: E. coli (2,339); cefuroxime: oral breakpoint
Experimental: (§1) This study assessed the in vitro activity of tebipenem and comparator agents against Enterobacterales (ENT) responsible for UTIs in the US during 2019-2020. A total of 3,576 ENT recovered from urine samples during the 2019-2020 STEWARD Surveillance Program were included in the study. Isolates were collected from medical centers in all 9 US Census Regions and were centrally tested for susceptibility by reference broth microdilution method. MIC interpretation was performed based on CLSI criteria.

P. mirabilis = assay: as above; format: cell-based; details: for % susceptible; CLSI: P. mirabilis (235), cefuroxime: oral breakpoint
Experimental: as §1

Enterobacterales (ENT) = assay: as above; format: cell-based; details: All (3,567); cefuroxime: oral breakpoint
Experimental: as §1

K. pneumoniae = assay: as above; format: cell-based; details: K. pneumoniae (511); cefuroxime: oral breakpoint
Experimental: as §1

[3] = system: Enterobacterales overproducing AmpC; assay: Broth microdilution susceptibility of isolates overexpressing AmpC; format: cell-based
Experimental: (§2) Frozen-form broth microdilution panels were manufactured by JMI Laboratories and contained cation-adjusted Mueller-Hinton broth. Quality assurance was performed by sterility checks, colony counts, and testing CLSI recommended quality control reference strains.

E. coli [4] = assay: Broth microdilution MIC against characterized subsets of UTI E. coli (2018-2020); format: cell-based; details: for MIC90: read-out: MIC90
Description: Isolates were collected from medical centers in all 9 US Census Regions and tested by broth microdilution. MIC interpretation was based on CLSI. Isolates that met MIC criteria were subjected to genome sequencing, followed by screening of extended-spectrum b-lactamase (ESBL) genes and epidemiology typing (MLST).

[5] = system: P. aeruginosa isolates that overproduced AmpC; assay: Broth microdilution susceptibility of isolates overexpressing AmpC; format: cell-based; details: P. aeruginosa (32)
Experimental: as §2

[6] = Particle size distribution of tebipenem pivoxil HBr batches by sieve method; format: physicochemical
[7] = Enterobacterales (36), second cefuroxime line, footnote c (not given)
[8] = Escherichia coli, CTX-M a, read-out: MIC50
[9] = Escherichia coli, ESBL (360), read-out: MIC50
[10] = Escherichia coli, Non-ESBL (2035), read-out: MIC50
[11] = Escherichia coli, Non-ESBL (2035)
[12] = Enterobacterales (36), read-out: MIC50
[13] = Enterobacterales (36), read-out: MIC90

C[C@@H](O)[C@H]1C(=O)N2C(C(=O)OCOC(=O)C(C)(C)C)=C(SC3CN(C4=NCCS4)C3)[C@H](C)[C@H]12 [Tebipenem pivoxil HBr, tebipenem pivoxil hydrobromide]
Clinical cure rate ([1]; EOT): 100%
Clinical cure rate ([1]; TOC): 97.9%
Overall response rate ([1]; end-of-treatment (EOT)): 93.6%
Clinical cure rate ([1]; late-follow-up (LFU) visit): approximately 89%
Overall response rate ([1]; test-of-cure (TOC)): 72.3%

CO/N=C(\C(=O)N[C@@H]1C(=O)N2C(C(=O)O)=C(COC(N)=O)CS[C@H]12)c1ccco1 [Cefuroxime]
% susceptible; CLSI (E. coli [2]): (63.1) %
% susceptible; CLSI (P. mirabilis): (94.4) %
% susceptible; CLSI (P. mirabilis; listed as cefuroxime): 94.4%
% susceptible; CLSI (Enterobacterales (ENT)): (63.5) %
% susceptible; CLSI (K. pneumoniae): (75.3) %
MIC50 [3]: > 64 µg/mL
MIC90 [3]: > 64 µg/mL
CLSI %1 ([3]; Enterobacterales (36)): 5.6%
CLSI % R ([3]; Enterobacterales (36)): 94.4%
CLSI % S ([3]; Enterobacterales (36)): 0.0^b %
CLSI %1 [3, 7]: 5.6%
CLSI % R [3, 7]: 94.4%
CLSI % S [3, 7]: 0.0^c %

Tebipenem pivoxil
MIC50 (P. mirabilis): 0.12 µg/mL
MIC90 (P. mirabilis): 0.12 µg/mL
concentration inhibiting all PM (P. mirabilis): 0.25 mg/L

CO/N=C(\C(=O)N[C@@H]1C(=O)N2C(C(=O)O)=C(CSc3nc(=O)c(=O)[nH]n3C)CS[C@H]12)c1csc(N)n1 [Ceftriaxone, ceftriaxone]
% susceptible by CLSI M100 criteria (E. coli [4]; CMYb (33)): 0.0%
% susceptible by CLSI M100 criteria (E. coli [4]; CTX-M a): 0.0%
% susceptible by CLSI M100 criteria (E. coli [4]; DHA(7)): 28.6%
% susceptible by CLSI M100 criteria (E. coli [4]; ESBL (360)): 6.4%
MIC50 (E. coli [4]; [8]): > 8 µg/mL
MIC90 (E. coli [4]; Escherichia coli, CTX-M a): > 8 µg/mL
MIC50 (E. coli [4]; Escherichia coli, DHA(7), read-out: MIC50): 2 µg/mL (≈ 3.61 µM)
MIC50 (E. coli [4]; [9]): > 8 µg/mL
MIC90 (E. coli [4]; Escherichia coli, ESBL (360)): > 8 µg/mL
MIC50 (E. coli [4]; [10]): ≤ 0.06 µg/mL
MIC90 (E. coli [4]; [11]): 0.12 µg/mL (≈ 0.216 µM)
% susceptible by CLSI M100 criteria (E. coli [4]; Non-ESBL (2035)): 100%
% susceptible by CLSI M100 criteria (E. coli [4]; Non-ST131 (203)): 37.9%
% susceptible by CLSI M100 criteria (E. coli [4]; ST131 (222)): 20.3%
MIC50 [3]: > 8 µg/mL
MIC90 [3]: > 8 µg/mL
CLSI %1 ([3]; Enterobacterales (36)): 13.9%
CLSI % R ([3]; Enterobacterales (36)): 63.9%
CLSI % S ([3]; Enterobacterales (36)): 22.2%

CN(C)[C@@H]1C(O)=C(C(N)=O)C(=O)[C@@]2(O)C(O)=C3C(=O)c4c(O)cccc4[C@@](C)(O)[C@H]3C[C@@H]12 [Tetracycline]
CLSI %1 ([3]; Enterobacterales (36)): 5.6%
CLSI % R ([3]; Enterobacterales (36)): 44.4%
CLSI % S ([3]; Enterobacterales (36)): 50.0%
MIC50 [3, 12]: 4 µg/mL (≈ 9 µM)
MIC90 [3, 13]: > 16 µg/mL

CN(C)c1cc(NC(=O)CNC(C)(C)C)c(O)c2c1C[C@H]1C[C@H]3[C@H](N(C)C)C(O)=C(C(N)=O)C(=O)[C@@]3(O)C(O)=C1C2=O [Tigecycline]
MIC50 [3]: 0.25 µg/mL (≈ 0.427 µM)
MIC90 [3]: 1 µg/mL (≈ 1.71 µM)
CLSI %1 ([3]; Enterobacterales (36)): 5.6%
CLSI % R ([3]; Enterobacterales (36)): 0.0%
CLSI % S ([3]; Enterobacterales (36)): 94.4^d %
MIC range ([3]; Enterobacterales (36)): ≤0.06 to 4 μ/ml

CO/N=C(\C(=O)N[C@@H]1C(=O)N2C(C(=O)[O-])=C(C[N+]3(C)CCCC3)CS[C@H]12)c1csc(N)n1 [Cefepime]
MIC50 [3]: 0.5 µg/mL (≈ 1.04 µM)
MIC90 [3]: 128 µg/mL (≈ 266 µM)
CLSI %1 [5]: 40.6%
CLSI % R [5]: 12.5%
CLSI % S [5]: 46.9%

C[C@@H](O)[C@H]1C(=O)N2C(C(=O)OCOC(=O)C(C)(C)C)=C(SC3CN(C4=NCCS4)C3)[C@H](C)[C@H]12 [Tebipenem pivoxil]
MIC50 (E. coli [4]): 0.03/- (-) μg/mL

C[C@@H](O)[C@H]1C(=O)N2C(C(=O)O)=C(SCCN=CN)C[C@H]12 [Imipenem]
MIC50 [3]: 0.25 µg/mL (≈ 0.835 µM)
MIC90 [3]: 0.5 µg/mL (≈ 1.67 µM)
CLSI %1 ([3]; Enterobacterales (36)): 0.0%
CLSI % R ([3]; Enterobacterales (36)): 0.0%
CLSI % S ([3]; Enterobacterales (36)): 100.0%
MIC50 ([3]; Enterobacterales (36)): 0.25 μ/ml
MIC90 ([3]; Enterobacterales (36)): 0.5 μ/ml
MIC range ([3]; Enterobacterales (36)): ≤0.12 to 1 μ/ml
CLSI %1 [5]: 0.0%
CLSI % R [5]: 3.1%
CLSI % S [5]: 96.9%
MIC range [5]: 0.5 to 8 μ/ml

Br.C[C@@H](O)[C@H]1C(=O)N2C(C(=O)OCOC(=O)C(C)(C)C)=C(SC3CN(C4=NCCS4)C3)[C@H](C)[C@H]12 [Lot 2]
particle size distribution, 45 um< [6]: 46%
particle size distribution, 75 um< [6]: 6%
particle size distribution, 106 um< [6]: 6%
particle size distribution, 150 um< [6]: 2%
particle size distribution, 300 um< [6]: 0%
particle size distribution, <45 um [6]: 40%

C[C@H]1[C@H](NC(=O)/C(=N\OC(C)(C)C(=O)O)c2csc(N)n2)C(=O)N1S(=O)(=O)O [Aztreonam]
CLSI %1 ([3]; Enterobacterales (36)): 14.3%
CLSI % R ([3]; Enterobacterales (36)): 54.3%
CLSI % S ([3]; Enterobacterales (36)): 31.4%
MIC50 [3, 12]: > 16 µg/mL
MIC90 [3, 13]: > 16 µg/mL
CLSI %1 [5]: 31.2%
CLSI % R [5]: 50.0%
CLSI % S [5]: 18.8%

Br.C[C@@H](O)[C@H]1C(=O)N2C(C(=O)OCOC(=O)C(C)(C)C)=C(SC3CN(C4=NCCS4)C3)[C@H](C)[C@H]12 [Lot 1, Comil-ed]
particle size distribution, 45 um< [6]: 35%
particle size distribution, 75 um< [6]: 27%
particle size distribution, 106 um< [6]: 16%
particle size distribution, 150 um< [6]: 1%
particle size distribution, 300 um< [6]: 0%
particle size distribution, <45 um [6]: 21%

Cc1nnc(SCC2=C(C(=O)O)N3C(=O)[C@@H](NC(=O)Cn4cnnn4)[C@H]3SC2)s1 [CFZ, cefazolin]
% susceptible by CLSI M100 criteria (E. coli [4]; CTX-M a): 0.0%
% susceptible by CLSI M100 criteria (E. coli [4]; ESBL (360)): 0.6%
MIC50 (E. coli [4]; [8]): > 32 µg/mL
MIC90 (E. coli [4]; Escherichia coli, CTX-M a): > 32 µg/mL
MIC50 (E. coli [4]; [9]): > 32 µg/mL
MIC90 (E. coli [4]; Escherichia coli, ESBL (360)): > 32 µg/mL
MIC50 (E. coli [4]; [10]): 2 µg/mL (≈ 4.4 µM)
MIC90 (E. coli [4]; [11]): 8 µg/mL (≈ 17.6 µM)
% susceptible by CLSI M100 criteria (E. coli [4]; Non-ESBL (2035)): 96.4%

Piperacillin-tazobactam
CLSI %1 ([3]; Enterobacterales (36)): 19.4%
CLSI % R ([3]; Enterobacterales (36)): 33.3%
CLSI % S ([3]; Enterobacterales (36)): 47.2%
MIC50 ([3]; Enterobacterales (36)): 32 μ/ml
MIC90 ([3]; Enterobacterales (36)): >128 μ/ml
CLSI %1 [5]: 40.6%
CLSI % R [5]: 53.1%
CLSI % S [5]: 6.2%
MIC50 [5]: 128 μ/ml
MIC90 [5]: >128 μ/ml

Source: patent US12048691B2 (SPERO THERAPEUTICS, INC., priority 2020, dated 2024)
